Measured values published in US20240425491A1, “HETEROARYL COMPOUNDS USEFUL IN THE TREATMENT OF COGNITIVE DISORDERS” (University College Cardiff Consultants Limited, priority 2021, published 2024).

Legend:
[1] = target: T1, human recombinant GABAAR containing α5β3γ2 subunits (benzodiazepine site) (Homo sapiens, UniProt P18507+P31644); assay: In vitro radioligand binding assay (α5-GABAAR Ki); settings: inhibition of [3H]Ro15-1788 binding, membranes of L(tk−) cells expressing human α5β3γ2; read-out: α5-GABAAR Ki
T1 construct: expressed in transfected cells; host or cells: mouse L(tk−) cells, dexamethasone-inducible vector pMSGneo
T1 sequence (P31644 32-462): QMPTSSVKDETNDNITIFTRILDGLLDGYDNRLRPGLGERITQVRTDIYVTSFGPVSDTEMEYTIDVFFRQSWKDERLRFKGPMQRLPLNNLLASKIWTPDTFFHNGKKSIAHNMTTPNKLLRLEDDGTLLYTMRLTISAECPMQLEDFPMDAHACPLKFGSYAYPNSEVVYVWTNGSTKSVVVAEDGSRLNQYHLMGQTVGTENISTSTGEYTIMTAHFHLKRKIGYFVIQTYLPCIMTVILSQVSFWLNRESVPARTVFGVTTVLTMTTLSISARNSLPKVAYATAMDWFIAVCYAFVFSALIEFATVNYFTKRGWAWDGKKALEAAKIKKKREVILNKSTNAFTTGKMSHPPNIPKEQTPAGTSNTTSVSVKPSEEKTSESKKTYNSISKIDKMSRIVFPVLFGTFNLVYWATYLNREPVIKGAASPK
T1 sequence (P28472 26-473 partner): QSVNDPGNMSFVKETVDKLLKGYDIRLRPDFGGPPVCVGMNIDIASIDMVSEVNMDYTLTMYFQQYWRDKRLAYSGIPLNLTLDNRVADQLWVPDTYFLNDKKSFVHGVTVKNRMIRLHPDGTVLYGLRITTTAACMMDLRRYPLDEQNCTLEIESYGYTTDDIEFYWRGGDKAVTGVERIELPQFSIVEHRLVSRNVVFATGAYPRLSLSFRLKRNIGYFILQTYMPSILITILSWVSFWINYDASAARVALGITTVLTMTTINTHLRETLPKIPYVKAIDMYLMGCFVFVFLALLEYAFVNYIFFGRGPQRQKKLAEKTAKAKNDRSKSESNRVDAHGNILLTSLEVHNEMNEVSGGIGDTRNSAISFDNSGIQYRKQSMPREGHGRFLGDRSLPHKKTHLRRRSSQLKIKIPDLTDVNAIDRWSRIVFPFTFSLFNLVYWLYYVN
T1 sequence (P18507 40-475): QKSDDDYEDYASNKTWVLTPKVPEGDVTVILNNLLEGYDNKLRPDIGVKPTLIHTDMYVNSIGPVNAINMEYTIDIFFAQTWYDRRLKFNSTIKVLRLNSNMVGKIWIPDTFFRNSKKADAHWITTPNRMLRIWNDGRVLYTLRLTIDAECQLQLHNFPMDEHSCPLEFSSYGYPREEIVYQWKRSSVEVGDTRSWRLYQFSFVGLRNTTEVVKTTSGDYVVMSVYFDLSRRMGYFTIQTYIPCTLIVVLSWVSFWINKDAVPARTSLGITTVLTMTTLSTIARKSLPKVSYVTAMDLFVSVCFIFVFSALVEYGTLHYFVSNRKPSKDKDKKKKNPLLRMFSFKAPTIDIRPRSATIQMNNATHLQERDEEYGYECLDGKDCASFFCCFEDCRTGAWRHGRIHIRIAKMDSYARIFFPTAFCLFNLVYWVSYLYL
How it was run: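 Membranes from mouse L(tk^−) cells stably expressing human α5β3γ2 GABAAR incubated 1 h at 4° C with 4 nM [^3H]Ro15-1788 and test compound; nonspecific binding with 1 μM TP003. Filter-bound radioactivity counted; Ki from IC50 by Cheng-Prusoff using measured Kd.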

[2] = target: T2, human α5β3γ2 GABAARs in mouse L(tk−) cells (Homo sapiens, UniProt P18507+P31644); assay: In vitro electrophysiological recording assay (α5-GABAAR relative efficacy), QPatch; format: cell-based; settings: GABA EC10-20
T2 construct: expressed in transfected cells; host or cells: mouse L(tk−) cells, dexamethasone-inducible vector pMSGneo
T2 sequence (P31644 32-462): as the sequence (P31644 32-462) above
T2 sequence (P28472 26-473 partner): as the sequence (P28472 26-473 partner) above
T2 sequence (P18507 40-475): as the sequence (P18507 40-475) above
How it was run: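 Whole-cell QPatch recordings at 20-22° C, −65 mV holding, in dexamethasone-induced (1 μM, 24 h) L(tk−) cells. Compound pre-applied ≥1 min, then co-applied with GABA EC10-20; percentage change in leak-corrected peak current, taken at ≥100× Ki, normalised to DMCM efficacy; 0.1% DMSO final.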

Compound	Ki [1]	α5-GABAAR Relative Efficacy (to DMCM), Qpatch ([2]; Conc 3 μM)	other results
COc1nc(-c2ccc(CO)nc2)cnc1NC(=O)c1c(-c2ccccc2)noc1C [Example 148, N-[5-[6-(Hydroxymethyl)-3-pyridyl]-3-methoxy-pyrazin-2-yl]-5-methyl-3-phenyl-isoxazole-4-carboxamide]	1.2 nM	–	α5-GABAAR Relative Efficacy (to DMCM), Qpatch ([2]; Conc 0.3 μM): −0.80
COc1nc(-c2ccc(=O)n(C)c2)cnc1NC(=O)c1c(-c2ccccc2)noc1C [Example 149, N-[3-Methoxy-5-(1-methyl-6-oxo-3-pyridyl)pyrazin-2-yl]-5-methyl-3-phenyl-isoxazole-4-carboxamide]	5.2 nM	–	α5-GABAAR Relative Efficacy (to DMCM), Qpatch ([2]; Conc 1 μM): −0.66
COc1nc(-c2cnc(N)cn2)cnc1NC(=O)c1c(-c2ccccc2)noc1C [Example 150, N-[5-(5-Aminopyrazin-2-yl)-3-methoxy-pyrazin-2-yl]-5-methyl-3-phenyl-isoxazole-4-carboxamide]	5.1 nM	–	α5-GABAAR Relative Efficacy (to DMCM), Qpatch ([2]; Conc 1 μM): −0.83
COc1nc(-n2ccnc2)ccc1NC(=O)c1c(C)nnn1-c1ccccc1 [Example 151, N-(6-(1H-Imidazol-1-yl)-2-methoxypyridin-3-yl)-4-methyl-1-phenyl-1H-1,2,3-triazole-5-carboxamide]	45.1 nM	−0.89	–
COc1nc(-n2cnc(CN(C)C)c2)ccc1NC(=O)c1c(-c2ccccc2)noc1C [Example 152, N-[6-[4-[(Dimethylamino)methyl]imidazol-1-yl]-2-methoxy-3-pyridyl]-5-methyl-3-phenyl-isoxazole-4-carboxamide]	22.9 nM	−0.27	–
COc1nc(-n2cncc2CN(C)C)ccc1NC(=O)c1c(-c2ccccc2)noc1C [Example 153, N-[6-[5-[(Dimethylamino)methyl]imidazol-1-yl]-2-methoxy-3-pyridyl]-5-methyl-3-phenyl-isoxazole-4-carboxamide]	1.7 nM	–	α5-GABAAR Relative Efficacy (to DMCM), Qpatch ([2]; Conc 0.3 μM): −0.83
COc1nc(-n2ccnc2)ccc1NC(=O)c1c(-c2ccccc2)nnn1C [Example 154, N-(6-(1H-Imidazol-1-yl)-2-methoxypyridin-3-yl)-1-methyl-4-phenyl-1H-1,2,3-triazole-5-carboxamide]	25.3 nM	−0.89	–
COc1nc(-c2cnc3n2CCOC3)cnc1NC(=O)c1c(-c2ccccc2)noc1C [Example 155, N-[5-(6,8-Dihydro-5H-imidazo[2,1-c][1,4]oxazin-3-yl)-3-methoxy-pyrazin-2-yl]-5-methyl-3-phenyl-isoxazole-4-carboxamide]	2.3 nM	–	α5-GABAAR Relative Efficacy (to DMCM), Qpatch ([2]; Conc 0.3 μM): −0.91
COc1nc(-c2ccc(CO)nc2)ccc1NC(=O)c1c(C)nnn1-c1ccccc1 [Example 160, N-(6′-(Hydroxymethyl)-6-methoxy-[2,3′-bipyridin]-5-yl)-4-methyl-1-phenyl-1H-1,2,3-triazole-5-carboxamide]	28 nM	−0.77	–
COc1nc(-c2cnc(CN(C)C)nc2)ccc1NC(=O)c1c(C)nnn1-c1ccccc1 [Example 161, N-(6-(2-((Dimethylamino)methyl)pyrimidin-5-yl)-2-methoxypyridin-3-yl)-4-methyl-1-phenyl-1H-1,2,3-triazole-5-carboxamide]	61.5 nM	–	α5-GABAAR Relative Efficacy (to DMCM), Qpatch ([2]; Conc 10 μM): −0.71
CCOc1ncc(-c2ccc(NC(=O)c3c(C)nnn3-c3ccccc3)c(OC)n2)cn1 [Example 162, N-(6-(2-Ethoxypyrimidin-5-yl)-2-methoxypyridin-3-yl)-4-methyl-1-phenyl-1H-1,2,3-triazole-5-carboxamide]	33.6 nM	−0.90	–
COc1nc(-c2cnc(OCCN(C)C)nc2)ccc1NC(=O)c1c(-c2ccccc2)noc1C [Example 163, N-[6-[2-[2-(Dimethylamino)ethoxy]pyrimidin-5-yl]-2-methoxy-3-pyridyl]-5-methyl-3-phenyl-isoxazole-4-carboxamide]	4.1 nM	–	α5-GABAAR Relative Efficacy (to DMCM), Qpatch ([2]; Conc 1 μM): −1.11
COc1nc(-c2c[nH]c(=O)c(F)c2)ccc1NC(=O)c1c(C)nnn1-c1ccccc1 [Example 164, N-(5′-Fluoro-6-methoxy-6′-oxo-1′,6′-dihydro-[2,3′-bipyridin]-5-yl)-4-methyl-1-phenyl-1H-1,2,3-triazole-5-carboxamide]	27.2 nM	−0.65	–
COc1nc(-c2cnc(C(N)=O)nc2)ccc1NC(=O)c1c(C)nnn1-c1ccccc1 [Example 165, 5-(6-Methoxy-5-(4-methyl-1-phenyl-1H-1,2,3-triazole-5-carboxamido)pyridin-2-yl)pyrimidine-2-carboxamide]	35.4 nM	−0.84	–
CNc1ncc(-c2ccc(NC(=O)c3c(C)nnn3-c3ccccc3)c(OC)n2)cn1 [Example 166, N-(2-Methoxy-6-(2-(methylamino)pyrimidin-5-yl)pyridin-3-yl)-4-methyl-1-phenyl-1H-1,2,3-triazole-5-carboxamide]	31 nM	−0.98	–
COc1nc(-c2cnc(NCCN(C)C)nc2)ccc1NC(=O)c1c(-c2ccccc2)noc1C [Example 167, N-[6-[2-[2-(Dimethylamino)ethylamino]pyrimidin-5-yl]-2-methoxy-3-pyridyl]-5-methyl-3-phenyl-isoxazole-4-carboxamide]	0.7 nM	–	α5-GABAAR Relative Efficacy (to DMCM), Qpatch ([2]; Conc 1 μM): −0.92
CNCc1ncc(-c2ccc(NC(=O)c3c(-c4ccccc4)noc3C)c(OC)n2)cn1.Cl [Example 168, N-[2-Methoxy-6-[2-(methylaminomethyl)pyrimidin-5-yl]-3-pyridyl]-5-methyl-3-phenyl-isoxazole-4-carboxamide hydrochloride]	2.7 nM	–	α5-GABAAR Relative Efficacy (to DMCM), Qpatch ([2]; Conc 0.3 μM): −0.72
CNCc1ncc(-c2cnc(NC(=O)c3c(-c4ccccc4)noc3C)c(OC)n2)cn1.Cl [Example 169, N-[3-Methoxy-5-[2-(methylaminomethyl)pyrimidin-5-yl]pyrazin-2-yl]-5-methyl-3-phenyl-isoxazole-4-carboxamide hydrochloride]	5.2 nM	–	α5-GABAAR Relative Efficacy (to DMCM), Qpatch ([2]; Conc 1 μM): −0.88
CNCCNc1ncc(-c2ccc(NC(=O)c3c(-c4ccccc4)noc3C)c(OC)n2)cn1.Cl [Example 170, N-[2-Methoxy-6-[2-[2-(methylamino)ethylamino]pyrimidin-5-yl]-3-pyridyl]-5-methyl-3-phenyl-isoxazole-4-carboxamide hydrochloride]	0.5 nM	–	α5-GABAAR Relative Efficacy (to DMCM), Qpatch ([2]; Conc 0.1 μM): −0.84
COc1nc(-c2cnc(NCCN)nc2)ccc1NC(=O)c1c(-c2ccccc2)noc1C.Cl [Example 171, N-[6-[2-(2-Aminoethylamino)pyrimidin-5-yl]-2-methoxy-3-pyridyl]-5-methyl-3-phenyl-isoxazole-4-carboxamide hydrochloride]	3.8 nM	–	α5-GABAAR Relative Efficacy (to DMCM), Qpatch ([2]; Conc 0.1 μM): −0.75
COc1nc(-c2cnc(C(=O)NCCN(C)C)nc2)ccc1NC(=O)c1c(-c2ccccc2)noc1C [Example 172, N-[6-[2-[2-(Dimethylamino)ethylcarbamoyl]pyrimidin-5-yl]-2-methoxy-3-pyridyl]-5-methyl-3-phenyl-isoxazole-4-carboxamide]	0.2 nM	–	α5-GABAAR Relative Efficacy (to DMCM), Qpatch ([2]; Conc 0.1 μM): −0.80
